# Experimental data: ChEMBL document CHEMBL1201862, “PubChem BioAssay data set” (2004)
#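 In this assay, cells in 96-well plates receive the compound at five concentrations for 48 hours. Endpoints are linearly interpolated between the surrounding concentrations. GI50 is the concentration that inhibits growth by half.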 Calls of active or inactive are those of the source. Rule as the data show it: active = GI50 up to about 1.1 µM and inactive = higher.
# Legend:
# Experiment in all cases: NCI-60 cell line screen, 48 h
# [1] = system: HCT-116
# [2] = system: SK-MEL-5
# [3] = system: M14
# [4] = system: SK-MEL-28
# [5] = system: SNB-75
# [6] = system: OVCAR-5
# [7] = system: NCI-H460
# [8] = system: TK-10
# [9] = system: SF-539
# [10] = system: DMS-273
# [11] = system: MOLT-4
# [12] = system: UACC-62
# [13] = system: SF-295
# [14] = system: LOX IMVI
# [15] = system: A498
# [16] = system: A549
# [17] = system: NCI-H23
# [18] = system: 786-0
# [19] = system: PC-3
# [20] = system: SR
SMILES,GI50 [1],GI50 [2],GI50 [3],GI50 [4],GI50 [5],GI50 [6],GI50 [7],GI50 [8],GI50 [9],GI50 [10],GI50 [11],GI50 [12],GI50 [13],GI50 [14],GI50 [15],GI50 [16],GI50 [17],GI50 [18],GI50 [19],GI50 [20]
O=C1C=C(Nc2ccc(Cl)cc2C(=O)c2ccccc2)c2ccccc2C1=O,> 100 µM (inactive),> 100 µM (inactive),> 100 µM (inactive),> 100 µM (inactive),> 100 µM (inactive),> 100 µM (inactive),> 100 µM (inactive),> 100 µM (inactive),> 100 µM (inactive),> 100 µM (inactive),> 100 µM (inactive),> 100 µM (inactive),> 100 µM (inactive),> 100 µM (inactive),> 100 µM (inactive),> 100 µM (inactive),> 100 µM (inactive),> 100 µM (inactive),–,–
COC(=O)/C(C)=C/[N+](=O)[O-],8.04 µM (inactive),23 µM (inactive),15.7 µM (inactive),–,16.3 µM (inactive),19.7 µM (inactive),22.2 µM (inactive),16.3 µM (inactive),18.8 µM (inactive),17.8 µM (inactive),11 µM (inactive),17.9 µM (inactive),16.6 µM (inactive),18.7 µM (inactive),23.3 µM (inactive),21.7 µM (inactive),19.8 µM (inactive),17.7 µM (inactive),–,–
O=C1CC2CC=C[C@H]3c4cc5c(cc4C(=O)N1C23)OCO5 (some centres not stated),> 50 µM (inactive),–,> 50 µM (inactive),> 50 µM (inactive),> 50 µM (inactive),–,> 50 µM (inactive),> 50 µM (inactive),> 50 µM (inactive),> 50 µM (inactive),> 50 µM (inactive),> 50 µM (inactive),> 50 µM (inactive),> 50 µM (inactive),–,> 50 µM (inactive),> 50 µM (inactive),> 50 µM (inactive),–,–
O=c1c2ccccc2nc(-c2cccc(Cl)c2)n1NC1OC(CO)C(O)C(O)C1O (configuration not stated),> 100 µM (inactive),> 100 µM (inactive),> 100 µM (inactive),> 100 µM (inactive),> 100 µM (inactive),> 100 µM (inactive),> 100 µM (inactive),> 100 µM (inactive),> 100 µM (inactive),> 100 µM (inactive),> 100 µM (inactive),> 100 µM (inactive),> 100 µM (inactive),–,> 100 µM (inactive),> 100 µM (inactive),> 100 µM (inactive),> 100 µM (inactive),–,–
CCOC(=O)[C@@]12C[C@](/C=C/OC)(O[Si](C)(C)C)[C@@]13c1cc(OC)c(OC)cc1CCN3C(=O)C2=O,> 100 µM (inactive),> 100 µM (inactive),> 100 µM (inactive),> 100 µM (inactive),> 100 µM (inactive),> 100 µM (inactive),> 100 µM (inactive),> 100 µM (inactive),> 100 µM (inactive),–,> 100 µM (inactive),> 100 µM (inactive),> 100 µM (inactive),> 100 µM (inactive),> 100 µM (inactive),> 100 µM (inactive),> 100 µM (inactive),> 100 µM (inactive),> 100 µM (inactive),> 100 µM (inactive)
CN(CC(=O)O)Cc1oc(CO)cc(=O)c1O,> 100 µM (inactive),> 100 µM (inactive),> 100 µM (inactive),> 100 µM (inactive),> 100 µM (inactive),> 100 µM (inactive),> 100 µM (inactive),> 100 µM (inactive),> 100 µM (inactive),–,> 100 µM (inactive),> 100 µM (inactive),> 100 µM (inactive),> 100 µM (inactive),> 100 µM (inactive),> 100 µM (inactive),> 100 µM (inactive),> 100 µM (inactive),> 100 µM (inactive),> 100 µM (inactive)
N#CCc1nc(Cc2ccccc2)n[nH]1,> 100 µM (inactive),> 100 µM (inactive),> 100 µM (inactive),> 100 µM (inactive),> 100 µM (inactive),> 100 µM (inactive),> 100 µM (inactive),> 100 µM (inactive),> 100 µM (inactive),–,> 100 µM (inactive),> 100 µM (inactive),> 100 µM (inactive),> 100 µM (inactive),> 100 µM (inactive),> 100 µM (inactive),> 100 µM (inactive),> 100 µM (inactive),> 100 µM (inactive),> 100 µM (inactive)
C[C@@H]1CCC([C@@H](C)[C@H]2CC[C@H]3[C@@H]4CC[C@H]5C[C@@H](O)CC[C@]5(C)[C@H]4CC[C@]23C)=NC1,6.43 µM (inactive),7.64 µM (inactive),4.73 µM (inactive),20.1 µM (inactive),19.1 µM (inactive),24.4 µM (inactive),7.62 µM (inactive),34.7 µM (inactive),15 µM (inactive),–,13 µM (inactive),15.9 µM (inactive),4.71 µM (inactive),3.15 µM (inactive),> 70.1 µM (inactive),16.9 µM (inactive),17.7 µM (inactive),8.02 µM (inactive),10.1 µM (inactive),12 µM (inactive)
O=C(/C=C/c1ccccc1)c1ccccc1 [CHALCONE],2.01 µM (inactive),> 10 µM (inactive),> 10 µM (inactive),> 10 µM (inactive),> 10 µM (inactive),> 10 µM (inactive),> 9.55 µM (inactive),> 10 µM (inactive),> 10 µM (inactive),–,0.938 µM (active),> 10 µM (inactive),> 10 µM (inactive),1.9 µM (inactive),> 10 µM (inactive),> 10 µM (inactive),> 10 µM (inactive),> 10 µM (inactive),> 10 µM (inactive),> 6.58 µM (inactive)
COc1ccc(OC)c(CCc2cc(OC)ccc2OC)c1,0.59 µM (active),0.324 µM (active),2.09 µM (inactive),3.28 µM (inactive),2.41 µM (inactive),> 8.71 µM (inactive),1.71 µM (inactive),3.42 µM (inactive),2.07 µM (inactive),–,1.91 µM (inactive),2.63 µM (inactive),2.11 µM (inactive),0.676 µM (active),4.48 µM (inactive),5.28 µM (inactive),3.18 µM (inactive),3.17 µM (inactive),2.3 µM (inactive),0.379 µM (active)
CCOC(=O)[C@@]12C(C)=CC(=O)O[C@]1(C)C[C@H]2C#N,> 100 µM (inactive),> 100 µM (inactive),> 100 µM (inactive),> 100 µM (inactive),20.8 µM (inactive),–,> 100 µM (inactive),> 100 µM (inactive),> 100 µM (inactive),> 100 µM (inactive),> 100 µM (inactive),> 100 µM (inactive),> 100 µM (inactive),> 100 µM (inactive),> 100 µM (inactive),> 100 µM (inactive),> 100 µM (inactive),> 100 µM (inactive),–,–
CC(=O)OCC1OC(N2C(C)=C(C(C)=O)C(c3ccc(Cl)cc3)C(C#N)=C2S)C(OC(C)=O)C(OC(C)=O)C1OC(C)=O (configuration not stated),36.7 µM (inactive),32.3 µM (inactive),56.8 µM (inactive),47.1 µM (inactive),27.9 µM (inactive),> 100 µM (inactive),45.1 µM (inactive),76.9 µM (inactive),44.1 µM (inactive),–,18.6 µM (inactive),19.9 µM (inactive),66.2 µM (inactive),76.2 µM (inactive),38.2 µM (inactive),49.9 µM (inactive),> 10 µM (inactive),35.6 µM (inactive),36 µM (inactive),28.2 µM (inactive)
C=C(O)c1ccccc1C#Cc1ccccc1C(=O)OC,> 10 µM (inactive),> 10 µM (inactive),> 10 µM (inactive),> 10 µM (inactive),3.66 µM (inactive),> 10 µM (inactive),> 10 µM (inactive),> 10 µM (inactive),> 10 µM (inactive),–,> 10 µM (inactive),> 10 µM (inactive),> 10 µM (inactive),> 10 µM (inactive),> 10 µM (inactive),> 10 µM (inactive),> 10 µM (inactive),> 10 µM (inactive),> 10 µM (inactive),> 10 µM (inactive)
C[C@]12CCC(=O)C=C1CC[C@@H]1C2CC[C@]2(C)Nc3[nH]ncc3CC12 (some centres not stated),> 100 µM (inactive),> 100 µM (inactive),> 100 µM (inactive),> 100 µM (inactive),30.3 µM (inactive),> 100 µM (inactive),> 100 µM (inactive),> 100 µM (inactive),> 100 µM (inactive),> 100 µM (inactive),> 100 µM (inactive),> 100 µM (inactive),94.2 µM (inactive),–,> 100 µM (inactive),> 100 µM (inactive),> 100 µM (inactive),> 100 µM (inactive),–,–
COc1ccc2c(c1)CC[C@@H]1[C@@H]2CC[C@]2(C)/C(=N/OCCN3CCCCC3)CC[C@@H]12,2.38 µM (inactive),2.65 µM (inactive),2.42 µM (inactive),2.12 µM (inactive),5.69 µM (inactive),5.33 µM (inactive),2.5 µM (inactive),4.74 µM (inactive),2.77 µM (inactive),–,3.06 µM (inactive),2.06 µM (inactive),3.52 µM (inactive),1.66 µM (inactive),6.38 µM (inactive),5.35 µM (inactive),11.4 µM (inactive),1.85 µM (inactive),4.74 µM (inactive),2.44 µM (inactive)
